Tests used:
[1] = OECD 306 biodegradation test, closed bottle method; conditions: percent of measured COD, no substrate, acidic, non-neutralized form; for BIODEGRADATION by OECD 306 Max, 28 d (%): 28 days; for BIODEGRADATION by OECD 306 Max, 63 d (%): 63 days
Description: Full details of the procedure and methods of calculation are publicly available in OECD documents. In all cases, the tests were performed without a substrate and the percent biodegradation was determined as a percentage of the measured chemical oxygen demand (COD).
Each of the datasets presented in Table 1 and FIGS. 2 through 5 were obtained on the products as described in their acidic, non-neutralized forms.

[2] = Scale inhibitor performance, dynamic loop method; conditions: Field I brine, 128 C, pH 7.7, 10 mL/min; hold time 1 hour
Text: A number of scale inhibitor performance tests were undertaken using the dynamic loop method. This method is widely used in the oilfield service industry and is designed to evaluate the ability of a candidate scale inhibitor to delay the blockage of a small diameter metal capillary when injected with a scaling brine at constant flow rate under selected test conditions. The test conditions and water compositions are generally selected to represent, at least in-part, the process conditions under which a scale inhibitor might be deployed. The flow rate of the test brine is generally selected to allow the experiment to be performed in a repeatable and controlled manner. […]
Typically, one or more tests without any added scale inhibitor (blank tests) were performed in order to determine the scaling time for the un-inhibited brine under the given test conditions. […] The deposition of scale was monitored by measuring the differential pressure (ΔP) developed across the test capillary over time. […] Alternatively, the concentration of the scale inhibitor can be reduced step-wise and the minimum inhibitor concentration (MIC) required for preventing a given increase in ΔP over a given time period can be determined. […]
To prepare the test water, each water composition was divided into two parts. […] The pH of the individual waters was also measured and adjusted. […]

Row | Compound | BIODEGRADATION by OECD 306 Max, 28 d (%) [1] [%] | MIC Field I (ppm) [2] | BIODEGRADATION by OECD 306 Max, 28 d (%) ([1]; listed as Phosphonate 1) | BIODEGRADATION by OECD 306 Max, 63 d (%) [1] [%]
1 | O=P(O)(O)CN(CCN(CCN(CP(=O)(O)O)CP(=O)(O)O)CP(=O)(O)O)CCN(CP(=O)(O)O)CP(=O)(O)O [TETHMPA, tri-ethylene tetra amine hexa(methylene phosphonic acid)] | 0 |  |  | 
2 | O=P(O)(O)CN(CCN(CP(=O)(O)O)CP(=O)(O)O)CCN(CP(=O)(O)O)CP(=O)(O)O [DETA, diethylene triamine penta(methylene phosphonic acid)] | 0 | 6-8 ppm | 0 | 
3 | BAEE | 0 |  |  | 5
4 | O=P(O)(O)CN(CCCCCCN(CP(=O)(O)O)CP(=O)(O)O)CCCCCCN(CP(=O)(O)O)CP(=O)(O)O [BHMTPA, bis(hexamethylene) triamine penta(methylene phosphonic acid)] | 6 |  |  | 
5 | O=P(O)(O)CN(CCO)CP(=O)(O)O [MEA, monoethanolamine bis(methylene phosphonic acid)] | 6 |  |  | 3
